Assay results reported in PMC12040169 (PLOS Biology, 2025).

Assays:
[1] = tested on: T1, CTL2-GFP (C. trachomatis L2/434/Bu, GFP-expressing); assay: microbe, parasite or virus in culture; design: Intracellular C. trachomatis growth in HeLa cells, bulk GFP fluorescence relative to DMSO; conditions: Chlamydia trachomatis, HeLa, 28.5 h; bulk GFP, mean of 2; read-out: % of control remaining
T1 construct: L2/434/Bu, GFP-expressing
Experimental: MICs were calculated as described above.

in vitro [2] = conditions: human, hela cells, % viability
[3] = tested on: T2, C. trachomatis L2/434/Bu expressing GFP (CTL2-GFP); assay: microbe, parasite or virus in culture; design: C. trachomatis total inclusion area by high-content imaging, normalised to DMSO; conditions: Chlamydia trachomatis, HeLa, 28.5 h; total inclusion area; read-out: % of control remaining
T2 construct: L2/434/Bu GFP intracellular growth in HeLa cells
Method in brief: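 First, bulk GFP and resorufin signals were measured in compound-treated infected cultures. Cells were next fixed and stained with Hoechst. Finally, high-content imaging quantified chlamydial inclusions (area, number) and host nuclei, and MICs were calculated.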

in vitro [4] = assay: in vitro; design: Viability of infected HeLa host cells, resazurin conversion, bulk resorufin fluorescence relative to DMSO; conditions: human, hela cells; bulk resorufin, mean of 2

| Compound | activity at 1 µM [1] | activity at 5 µM [1] | activity at 10 µM [1] | viability at 28.5 h, 10 µM (in vitro [2]) | activity at 1 µM [3] | activity at 5 µM [3] | activity at 10 µM [3] | viability at 28.5 h, 1 µM (in vitro [4]) | viability at 28.5 h, 5 µM (in vitro [4]) | viability at 28.5 h, 10 µM (in vitro [4]) |
| --- | --- | --- | --- | --- | --- | --- | --- | --- | --- | --- |
| CCn1c2c(c3cc(S(=O)(=O)c4ccc(C(F)(F)F)cc4)ccc31)CCNCC2 [CBK018453C] | 143% | 54.5% | 5.22% | 97.5% | 133% | 58.6% | 12.8% | 94.5% | 89.4% | 91.9% |
| CCOc1ccsc1C(=O)NC1Cc2ccccc2C1 [CBK200359] | 57.4% | 3.62% | 6.67% | 82.6% | 88.7% | 0.493% | 0.44% | 104% | 96.4% | 93% |
| COc1cc(CN2CCNCC2)c2ccn(S(=O)(=O)c3cccc(Cl)c3C)c2c1 [CBK144484T] | 113% | 109% | 57.5% | 87.1% | 90.6% | 59.5% | 23.3% | 104% | 95.7% | 102% |
| CC(C)(CN)CN(Cc1ccc(-c2ccccc2)cc1)C(=O)Nc1ccccc1C(C)(C)C [CBK002476C] | 98.7% | 75.3% | 16.4% | 94.2% | 114% | 50.1% | 2.01% | 118% | 114% | 63.6% |
| CC(=O)NC[C@H]1CN(c2ccc(-c3nnc([C@@H](C)N)s3)c(F)c2)C(=O)O1 [CBK017966] | 90.2% | 10% | 3.77% | 93.2% | 84.6% | 5.78% | 2.78% | 92.5% | 87.1% | 89.3% |
| O=C(CSc1nnc(-c2cccnc2)o1)c1ccccc1 [CBK068446] | 74.8% | 13.2% | 1.98% | 139% | 67.4% | 24% | 6.22% | 112% | 111% | 114% |
| CCc1nnc(NS(=O)(=O)c2ccc(N/C=C\C(=O)c3ccc4ccccc4c3)cc2)s1 [CBK263385] | 109% | 23.6% | 24% | 91.4% | 110% | 33.1% | 19.1% | 93.6% | 95.1% | 88.7% |
| CC1=NN(c2ccccc2)C(=O)/C1=C/Nc1ccc(S(=O)(=O)Nc2nc(C)cc(C)n2)cc1 [CBK262368] | 46.9% | 21% | 13.7% | 106% | 70.2% | 28.2% | 14.1% | 96.6% | 93.9% | 96.8% |
| COc1ccc([C@@]23CC[C@@H](Nc4nc(-c5ccc(Br)cc5)cs4)C[C@@H]2N(C)CC3)cc1OC [CBK036543] | 138% | 104% | 94.2% | 87.7% | 76.2% | 68.6% | 45.2% | 91.3% | 91% | 109% |
| O=C(Nc1ccc(OC(F)(F)F)cc1)Nc1cc(-c2cccs2)n[nH]1 [CBK020563] | 100% | 13.4% | 4.7% | 82.5% | 96.5% | 24% | 10.2% | 113% | 110% | 117% |
| O=C(Nc1ccc(F)c(F)c1)NC1CCC2CN(CCOc3ccccc3)CC2C1 (centres unmarked) [CBK083365T] | 34.9% | 8.25% | 5.26% | 105% | 35.6% | 0.438% | 0.173% | 89.3% | 86.5% | 88.8% |
